Data: PubChem BioAssay (NCI)
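48-hour exposure; five concentrations; linearly interpolated endpoints. Here, GI50 denotes the concentration required for 50% inhibition of growth. TGI is the concentration that stops growth completely.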

Legend:
Assay in all cases: NCI-60 cell line screen, 48 h
OVCAR-3 ovarian = test system: OVCAR-3 ovarian
M14 melanoma = test system: M14 melanoma
TK-10 renal = test system: TK-10 renal
SK-OV-3 ovarian = test system: SK-OV-3 ovarian
OVCAR-5 ovarian = test system: OVCAR-5 ovarian
NCI-H23 lung = test system: NCI-H23 lung
HCC-2998 colon = test system: HCC-2998 colon
IGROV1 ovarian = test system: IGROV1 ovarian
HOP-92 NSCLC = test system: HOP-92 NSCLC
BT-549 breast = test system: BT-549 breast

Cc1cc(NS(=O)(=O)c2ccc(NC(=O)c3ccc(Cl)c4c(Nc5ccc(S(=O)(=O)N=C(N)N)cc5)c5ccccc5nc34)cc2)no1
TGI (OVCAR-3 ovarian): 83.7 µM | TGI (M14 melanoma): > 100 µM | TGI (TK-10 renal): > 100 µM | TGI (SK-OV-3 ovarian): > 100 µM | TGI (OVCAR-5 ovarian): > 100 µM | TGI (NCI-H23 lung): > 100 µM | TGI (HCC-2998 colon): 41.6 µM

O=C1C2C=CC(C2)C(c2ccc(O)cc2)N1O (stereo not drawn)
TGI (OVCAR-3 ovarian): > 100 µM | TGI (M14 melanoma): > 100 µM | TGI (TK-10 renal): > 100 µM | TGI (SK-OV-3 ovarian): > 100 µM | TGI (OVCAR-5 ovarian): > 100 µM | TGI (IGROV1 ovarian): > 100 µM | TGI (HOP-92 NSCLC): > 100 µM | TGI (NCI-H23 lung): > 100 µM | TGI (HCC-2998 colon): > 100 µM

C[N+]1(C)C/C(=C\c2ccccc2)C(=O)/C(=C/c2ccccc2)C1
TGI (OVCAR-3 ovarian): > 100 µM | TGI (M14 melanoma): > 100 µM | TGI (TK-10 renal): > 100 µM | TGI (SK-OV-3 ovarian): > 100 µM | TGI (OVCAR-5 ovarian): > 100 µM | TGI (IGROV1 ovarian): > 100 µM | TGI (HOP-92 NSCLC): > 100 µM | TGI (NCI-H23 lung): > 100 µM | TGI (HCC-2998 colon): > 100 µM

CC(O)c1ccc[n+](Cc2ccccc2)c1 (stereo not drawn)
TGI (OVCAR-3 ovarian): > 400 µM | TGI (TK-10 renal): > 400 µM | TGI (SK-OV-3 ovarian): > 400 µM | TGI (OVCAR-5 ovarian): > 400 µM | TGI (IGROV1 ovarian): > 400 µM | TGI (HOP-92 NSCLC): > 400 µM | TGI (NCI-H23 lung): > 400 µM | TGI (HCC-2998 colon): > 400 µM

COC(=O)NN=C1C(C)(C)C(=O)C1(C)C
TGI (OVCAR-3 ovarian): > 100 µM | TGI (M14 melanoma): > 100 µM | TGI (TK-10 renal): > 100 µM | TGI (SK-OV-3 ovarian): > 100 µM | TGI (OVCAR-5 ovarian): > 100 µM | TGI (IGROV1 ovarian): > 100 µM | TGI (HOP-92 NSCLC): > 100 µM | TGI (NCI-H23 lung): > 100 µM | TGI (HCC-2998 colon): > 100 µM

Cc1[nH]c(=O)n2c(C)nnc2c1C(=O)Nc1cc(Cl)cc(Cl)c1
TGI (OVCAR-3 ovarian): 40.8 µM | TGI (M14 melanoma): > 100 µM | TGI (TK-10 renal): 52.1 µM | TGI (SK-OV-3 ovarian): 70.7 µM | TGI (OVCAR-5 ovarian): > 100 µM | TGI (IGROV1 ovarian): 82 µM | TGI (HOP-92 NSCLC): 64 µM | TGI (NCI-H23 lung): 53 µM

CC1=NN(C(=O)CC(=O)NC(=O)CC(=O)Nc2ccccc2F)C(=O)C1N=Nc1ccc([N+](=O)[O-])cc1 (stereo not drawn)
TGI (OVCAR-3 ovarian): 81.3 µM | TGI (M14 melanoma): > 100 µM | TGI (TK-10 renal): > 100 µM | TGI (SK-OV-3 ovarian): > 100 µM | TGI (OVCAR-5 ovarian): > 100 µM | TGI (IGROV1 ovarian): > 100 µM | TGI (HOP-92 NSCLC): > 100 µM | TGI (NCI-H23 lung): > 100 µM | TGI (HCC-2998 colon): > 100 µM

COc1ccc2c(c1)Oc1cc(O)ccc1[C@@H]2c1ccccc1C(=O)NC(C)c1ccccc1 (stereo partly drawn)
TGI (OVCAR-3 ovarian): 34.5 µM | TGI (M14 melanoma): 24.6 µM | TGI (TK-10 renal): 50.7 µM | TGI (SK-OV-3 ovarian): 49.1 µM | TGI (OVCAR-5 ovarian): 30.5 µM | TGI (IGROV1 ovarian): 41.3 µM | TGI (NCI-H23 lung): 35.5 µM | TGI (HCC-2998 colon): 26.6 µM

Cc1ccc(NC(=O)C(=O)CC(=O)c2c(C)n([O-])c3ccccc3[n+]2=O)cc1
TGI (OVCAR-3 ovarian): 35.1 µM | TGI (M14 melanoma): 60.1 µM | TGI (TK-10 renal): > 100 µM | TGI (SK-OV-3 ovarian): > 100 µM | TGI (OVCAR-5 ovarian): > 100 µM | TGI (IGROV1 ovarian): 78.3 µM | TGI (HOP-92 NSCLC): > 100 µM | TGI (NCI-H23 lung): 56.6 µM | TGI (HCC-2998 colon): > 100 µM

O=C(NCCCCCCNC(=O)OCCSCCn1cc(C(=O)NC(=O)OCc2ccccc2)c(=O)[nH]c1=O)OCCSCCn1cc(C(=O)NC(=O)OCc2ccccc2)c(=O)[nH]c1=O
TGI (OVCAR-3 ovarian): > 100 µM | TGI (M14 melanoma): > 100 µM | TGI (TK-10 renal): > 100 µM | TGI (OVCAR-5 ovarian): > 100 µM | TGI (IGROV1 ovarian): > 100 µM | TGI (HOP-92 NSCLC): > 100 µM | TGI (NCI-H23 lung): > 100 µM | TGI (HCC-2998 colon): > 100 µM

O=C1CCCC(=O)N1CCc1c[nH]c2ccccc12
TGI (OVCAR-3 ovarian): > 100 µM | TGI (M14 melanoma): > 100 µM | TGI (TK-10 renal): > 100 µM | TGI (SK-OV-3 ovarian): > 100 µM | TGI (OVCAR-5 ovarian): > 100 µM | TGI (IGROV1 ovarian): > 100 µM | TGI (HOP-92 NSCLC): > 100 µM | TGI (NCI-H23 lung): > 100 µM | TGI (HCC-2998 colon): > 100 µM

COC(=O)C1=C(C(=O)OC)SC(=C(Cl)C(=S)Nc2ccccc2O)S1
GI50 (OVCAR-3 ovarian): 7.41 µM | TGI (OVCAR-3 ovarian): 22.8 µM | GI50 (M14 melanoma): 0.352 µM | TGI (M14 melanoma): 12.7 µM | GI50 (TK-10 renal): 7.05 µM | TGI (TK-10 renal): 23.9 µM | GI50 (SK-OV-3 ovarian): 20 µM | TGI (SK-OV-3 ovarian): > 50 µM | GI50 (OVCAR-5 ovarian): 11.6 µM | TGI (OVCAR-5 ovarian): 31.5 µM | GI50 (HOP-92 NSCLC): 40 µM | TGI (HOP-92 NSCLC): > 50 µM | GI50 (NCI-H23 lung): 6.67 µM | TGI (NCI-H23 lung): 20.1 µM | GI50 (BT-549 breast): 2.34 µM | TGI (BT-549 breast): 35.5 µM

CC(C)(CN1CCCCC1)C(=O)/C=C/c1ccc(Cl)cc1
TGI (OVCAR-3 ovarian): 11.9 µM | TGI (M14 melanoma): 9.79 µM | TGI (TK-10 renal): 29.1 µM | TGI (SK-OV-3 ovarian): 23.5 µM | TGI (OVCAR-5 ovarian): 23.5 µM | TGI (HOP-92 NSCLC): 4.64 µM | TGI (NCI-H23 lung): 6.76 µM | TGI (HCC-2998 colon): 26.3 µM

Cn1ccc2c(C(=O)c3ccccc3)cccc2c1=O
TGI (OVCAR-3 ovarian): > 100 µM | TGI (M14 melanoma): > 100 µM | TGI (TK-10 renal): > 100 µM | TGI (SK-OV-3 ovarian): > 100 µM | TGI (IGROV1 ovarian): > 100 µM | TGI (HOP-92 NSCLC): > 100 µM | TGI (HCC-2998 colon): > 100 µM

Fc1ccccc1C1SCc2nc3ccccc3n21 (stereo not drawn)
TGI (OVCAR-3 ovarian): > 100 µM | TGI (TK-10 renal): > 100 µM | TGI (SK-OV-3 ovarian): > 100 µM | TGI (OVCAR-5 ovarian): > 100 µM | TGI (IGROV1 ovarian): > 100 µM | TGI (HOP-92 NSCLC): 72.7 µM | TGI (NCI-H23 lung): > 100 µM | TGI (HCC-2998 colon): > 100 µM

c1ccc2cc3[s+]snc3cc2c1
TGI (OVCAR-3 ovarian): > 100 µM | TGI (M14 melanoma): > 100 µM | TGI (TK-10 renal): > 100 µM | TGI (SK-OV-3 ovarian): > 100 µM | TGI (OVCAR-5 ovarian): > 100 µM | TGI (IGROV1 ovarian): > 100 µM | TGI (NCI-H23 lung): > 100 µM | TGI (HCC-2998 colon): > 100 µM

COC(=O)[C@]12CC=C3O[C@@H]4OC5(CCCCC5)O[C@@H]4C3[C@@H]1C(=O)CCC2=O (stereo partly drawn)
TGI (OVCAR-3 ovarian): > 100 µM | TGI (M14 melanoma): > 100 µM | TGI (SK-OV-3 ovarian): > 100 µM | TGI (OVCAR-5 ovarian): > 100 µM | TGI (IGROV1 ovarian): > 100 µM | TGI (HOP-92 NSCLC): > 100 µM | TGI (NCI-H23 lung): > 100 µM | TGI (HCC-2998 colon): > 100 µM
